The target of the assay is GABAA receptor. The experiment in a line: Steroid inhibition of [35S]-TBPS binding. The note with it: rat brain cortical membranes, 3 nM [35S]-TBPS, in the presence of 5 mM GABA. As to the method: Steroid Inhibition of TBPS Binding
Briefly, cortices are rapidly removed following decapitation of carbon dioxide-anesthetized Sprague-Dawley rats ([…]). The cortices are homogenized in 10 volumes of ice-cold 0.32 M sucrose using a glass/teflon homogenizer and centrifuged at 1500×g for 10 min at 4° C. The resultant supernatants are centrifuged at 10,000×g for 20 min at 4° C. to obtain the P2 pellets. The P2 pellets are resuspended in 200 mM NaCl/50 mM Na—K phosphate pH 7.4 buffer and centrifuged at 10,000×g for 10 min at 4° C. This washing procedure is repeated twice and the pellets are resuspended in 10 volumes of buffer. Aliquots ([…]) of the membrane suspensions are incubated with 3 nM [^35S]-TBPS and […] aliquots of test drug dissolved in dimethyl sulfoxide (DMSO) (final 0.5%) in the presence of 5 mM GABA. The incubation is brought to a final volume of 1.0 mL with buffer. […] Following a 90 min incubation at room temp, the assays are terminated by filtration through glass fiber filters (Schleicher and Schuell No. 32) using a cell harvester (Brandel) and rinsed three times with ice-cold buffer. Filter bound radioactivity is measured by liquid scintillation spectrometry. Non-linear curve fitting of the overall data for each drug averaged for each concentration is done using Prism (GraphPad).
Various compounds are or can be screened to determine their potential as modulators of [^35S]-TBPS binding in vitro. These assays are or can be performed in accordance with the above discussed procedures.

Broadly, the IC50 is the concentration that inhibits the measured activity by half. Regarding `C[C@@]1(O)CC[C@H]2[C@H](CC[C@@H]3[C@@H]2CC[C@]2(C)[C@@H](c4ccccc4)CC[C@@H]32)C1` [Compound 101], the IC50 was 100 to 500 nM.
Turning to `Cc1ccc([C@H]2CC[C@H]3[C@@H]4CC[C@@H]5C[C@](C)(O)CC[C@@H]5[C@H]4CC[C@]23C)cc1` [Compound 102], the IC50 was in the range of 100 to 500 nM.
For the compound `C[C@@]1(O)CC[C@H]2[C@H](CC[C@@H]3[C@@H]2CC[C@]2(C)[C@@H](c4ccncc4)CC[C@@H]32)C1` [Compound 103], the IC50 was 10 to 50 nM.
`C[C@@]1(O)CC[C@H]2[C@H](CC[C@@H]3[C@@H]2CC[C@]2(C)[C@@H](c4cncnc4)CC[C@@H]32)C1` [Compound 104]: the IC50 lay within 50 to 100 nM.
With `C[C@@]1(O)CC[C@H]2[C@H](CC[C@@H]3[C@@H]2CC[C@]2(C)[C@@H](c4cccc(C#N)c4)CC[C@@H]32)C1` [Compound 105], the IC50 is 10 to 50 nM.
Turning to `C[C@@]1(O)CC[C@H]2[C@H](CC[C@@H]3[C@@H]2CC[C@]2(C)[C@@H](c4cccnc4)CC[C@@H]32)C1` [Compound 106], the IC50 was 10 to 50 nM.
Regarding `C[C@@]1(O)CC[C@H]2[C@H](CC[C@@H]3[C@@H]2CC[C@]2(C)[C@@H](C4CCOCC4)CC[C@@H]32)C1` [Compound 107], the IC50 was > 500 nM.
On to `C[C@@]1(O)CC[C@H]2[C@H](CC[C@@H]3[C@@H]2CC[C@]2(C)[C@@H](c4ccccn4)CC[C@@H]32)C1` [Compound 108], for which the IC50 is 100 to 500 nM.
For `C[C@@]1(O)CC[C@H]2[C@H](CC[C@@H]3[C@@H]2CC[C@]2(C)[C@@H](C4CCCC4)CC[C@@H]32)C1` [Compound 109], the half-inhibitory concentration (IC50) is > 500 nM.
`C[C@@]1(O)CC[C@H]2[C@H](CC[C@@H]3[C@@H]2CC[C@]2(C)[C@@H](c4ccc(C#N)cc4)CC[C@@H]32)C1` [Compound 110]: the IC50 lay in the range of 10 to 50 nM.
As for `Cn1cc([C@H]2CC[C@H]3[C@@H]4CC[C@@H]5C[C@](C)(O)CC[C@@H]5[C@H]4CC[C@]23C)cn1` [Compound 111], the IC50 was 50 to 100 nM.
To `C[C@@]1(O)CC[C@@]2(C)[C@@H](CC[C@@H]3[C@@H]2CC[C@]2(C)[C@@H](OCc4ccccc4)CC[C@@H]32)C1` [Compound 112] belongs > 500 nM.
As to `CO[C@H]1C[C@@]2(C)[C@@H](CC[C@@H]3[C@@H]2CC[C@]2(C)[C@@H]([N+](=O)[O-])CC[C@@H]32)C[C@@H]1O` [Compound 118], the IC50 lay within 10 to 50 nM.
With `CO[C@H]1C[C@]2(C)[C@@H]([N+](=O)[O-])CC[C@H]2[C@@H]2CC[C@H]3C[C@H](O)[C@@H](OC)C[C@]3(C)[C@H]21` [Compound 119] the figure was 10 to 50 nM.
In the case of `CO[C@H]1C[C@@]2(C)[C@@H](CC[C@@H]3[C@@H]2[C@@H](O)C[C@]2(C)[C@@H]([N+](=O)[O-])CC[C@@H]32)C[C@@H]1O` [Compound 120], the IC50 lay within 100 to 500 nM.
Turning to `CO[C@H]1C[C@@]2(C)[C@@H](CC[C@H]3[C@@H]4CC[C@H]([N+](=O)[O-])[C@@]4(C)CC(=O)[C@@H]32)C[C@@H]1O` [Compound 121], the IC50 was 100 to 500 nM.
Consider `CCO[C@H]1C[C@@]2(C)[C@@H](CC[C@@H]3[C@@H]2[C@@H](O)C[C@]2(C)[C@@H]([N+](=O)[O-])CC[C@@H]32)C[C@@H]1O` [Compound 122], for which the IC50 was 100 to 500 nM.
With `CCO[C@H]1C[C@@]2(C)[C@@H](CC[C@H]3[C@@H]4CC[C@H]([N+](=O)[O-])[C@@]4(C)CC(=O)[C@@H]32)C[C@@H]1O` [Compound 123] the figure was 50 to 100 nM; with `CC1(O)CC[C@H]2[C@@H]3CC[C@@H]4C[C@](C)(O)CC[C@@H]4[C@H]3CC[C@@]21C` (stereo partly shown) [Compound 126], > 500 nM.

The values are drawn from patent US12655175B2, “C17, C20, and C21 substituted neuroactive steroids and their methods of use” (Sage Therapeutics, LLC, priority 2016, dated 2026).
